Measured values published in US9365583B2, “Substituted pyrazoles and uses thereof” (Genentech, Inc., priority 2013, dated 2016).

Molecular target: T1, N-terminally GST-tagged DLK (catalytic domain amino acid 1-520) (Homo sapiens, UniProt Q12852)
T1 construct: N-terminally GST-tagged DLK (catalytic domain amino acid 1-520); purchased Carna Bioscience
T1 sequence (Q12852 1-520): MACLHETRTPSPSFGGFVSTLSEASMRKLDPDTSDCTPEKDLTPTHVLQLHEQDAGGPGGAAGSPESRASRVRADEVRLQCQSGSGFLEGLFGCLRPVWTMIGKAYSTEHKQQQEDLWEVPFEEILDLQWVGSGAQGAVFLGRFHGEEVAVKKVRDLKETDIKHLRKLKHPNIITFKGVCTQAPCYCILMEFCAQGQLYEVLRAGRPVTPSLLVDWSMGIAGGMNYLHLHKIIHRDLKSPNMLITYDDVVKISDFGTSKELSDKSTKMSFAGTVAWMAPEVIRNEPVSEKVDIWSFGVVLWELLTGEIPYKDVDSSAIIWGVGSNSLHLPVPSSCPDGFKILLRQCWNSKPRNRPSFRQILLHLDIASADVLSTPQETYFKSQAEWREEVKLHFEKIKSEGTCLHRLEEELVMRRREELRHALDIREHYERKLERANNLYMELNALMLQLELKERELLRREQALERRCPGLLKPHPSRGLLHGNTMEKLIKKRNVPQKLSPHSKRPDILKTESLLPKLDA
Assay: DLK TR-FRET inhibition assay
Format: biochemical
Conditions: 5 nM GST-DLK, 40 nM HIS-MKK4 K131M substrate, 30 μM ATP, 60 minutes at ambient temperature
Summary of the method: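 Phosphorylated MKK4 was quantified by TR-FRET (Eu-labelled anti-phospho-MKK4, D2 anti-HIS; 3 h, 665 and 615 nm emission) after EDTA quench. Reactions held 5 nM GST-tagged DLK catalytic domain (1-520), 40 nM HIS-MKK4 K131M substrate, 30 μM ATP and compound (3-fold series from 20 uM), 60 min, room temperature, pH 7.5.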

Compound | Ki [nM]
CC(C)n1nc(-c2cnc3cnn([C@@H](C)c4ccccn4)c3c2)cc1[C@H]1[C@@H]2C[C@H](N3CCOCC3)C[C@@H]21 [compound 34, 4-((1R,3S,5S,6r)-6-(1-isopropyl-3-(1-((S)-1-(pyridin-2-yl)ethyl)-1H-pyrazolo[4,3-b]pyridin-6-yl)-1H-pyrazol-5-yl)bicyclo[3.1.0]hexan-3-yl)morpholine] | 4.19
CC(C)n1nc(-c2cnc(N)c(C(F)(F)F)c2)cc1[C@H]1[C@@H]2CC(C#N)C[C@@H]21 (single isomer, unassigned) [compound 190] | 4.8
CO[C@H]1CCCN([C@@H]2C[C@@H]3[C@H](C2)[C@H]3c2cc(-c3cnc(N)c(C(F)(F)F)c3)nn2C(C)C)C1 [compound 290, 5-(1-isopropyl-5-((1R,3s,5S,6S)-3-((S)-3-methoxypiperidin-1-yl)bicyclo[3.1.0]hexan-6-yl)-1H-pyrazol-3-yl)-3-(trifluoromethyl) pyridin-2-amine] | 7.7
Nc1ncc(-c2cc([C@H]3[C@@H]4C[C@@H](N5CCCOCC5)C[C@@H]43)n(CC(F)F)n2)cc1C(F)(F)F [compound 135, 5-(5-((1R,3s,5S,6r)-3-(1,4-oxazepan-4-yl)bicyclo[3.1.0]hexan-6-yl)-1-(2,2-difluoroethyl)-1H-pyrazol-3-yl)-3-(trifluoromethyl) pyridin-2-amine] | 5.57
CC(C)n1nc(-c2cnc(N)c(OC(F)(F)F)c2)cc1[C@H]1[C@@H]2C[C@@H](N(C)CC3COC3)C[C@@H]21 [compound 18, 5-(1-isopropyl-5-((1R,3s,5S,6r)-3-(methyl(oxetan-3-ylmethyl)amino)bicyclo[3.1.0]hexan-6-yl)-1H-pyrazol-3-yl)-3-(trifluoromethoxy) pyridin-2-amine] | 3.81
CC(C)n1nc(-c2cnc(N)c(C(F)(F)F)c2)cc1[C@H]1[C@@H]2C[C@H](N3CCN[C@@H](C)C3)C[C@@H]21 [compound 234, 5-(1-isopropyl-5-((1R,3r,5S,6S)-3-((S)-3-methylpiperazin-1-yl)bicyclo[3.1.0]hexan-6-yl)-1H-pyrazol-3-yl)-3-(trifluoromethyl) pyridin-2-amine] | 4.9
Nc1ncc(-c2cc([C@H]3[C@@H]4C[C@@H](N5CCOCC5)C[C@@H]43)n(C3CCC3)n2)cc1OC(F)F [compound 131, 5-(1-cyclobutyl-5-((1R,3s,5S,6r)-3-morpholinobicyclo[3.1.0]hexan-6-yl)-1H-pyrazol-3-yl)-3-(difluoromethoxy)pyridin-2-amine] | 3.5
Nc1ncc(-c2cc([C@H]3[C@@H]4C[C@@H](N5CCOCC5)C[C@@H]43)n(CC(F)F)n2)cc1C(F)(F)F [compound 293, 5-(1-(2,2-difluoroethyl)-5-((1R,3s,5S,6r)-3-morpholinobicyclo [3.1.0]hexan-6-yl)-1H-pyrazol-3-yl)-3-(trifluoromethyl)pyridin-2-amine] | 3
CC(C)n1nc(-c2cnc(N)c(C(F)(F)F)c2)cc1[C@H]1[C@@H]2C[C@@H](N3CCN[C@@H](C)C3)C[C@@H]21 [compound 235, 5-(1-isopropyl-5-((1R,3s,5S,6S)-3-((S)-3-methylpiperazin-1-yl)bicyclo[3.1.0]hexan-6-yl)-1H-pyrazol-3-yl)-3-(trifluoromethyl) pyridin-2-amine] | 3.8
CC(C)n1nc(-c2cnc(N)c(C(F)(F)F)c2)cc1[C@H]1[C@@H]2C[C@H](N(C)CCS(C)(=O)=O)C[C@@H]21 [compound 8, 5-(1-isopropyl-5-((1R,3r,5S,6r)-3-(methyl(2-(methylsulfonyl)ethyl)amino)bicyclo[3.1.0]hexan-6-yl)-1H-pyrdzol-3-yl)-3-(trifluoromethyl)pyridin-2-amine] | 3.36

Compounds with a lower Ki, results first:

Ki [nM] | Compound
1.2 | CC(C)n1nc(-c2cnc(N)c(OC(F)F)c2)cc1[C@H]1[C@@H]2C[C@H](N3C[C@@H]4C[C@H]3CN4C)C[C@@H]21 [compound 202, 3-(difluoromethoxy)-5-(1-isopropyl-5-((1R,3r,5S,6S)-3-((1S,4S)-5-methyl-2,5-diazabicyclo[2.2.1]heptan-2-yl)bicyclo[3.1.0]hexan-6-yl)-1H-pyrazol-3-yl) pyridin-2-amine]
2 | CO[C@@H]1CCN([C@@H]2C[C@@H]3[C@H](C2)[C@H]3c2cc(-c3cnc(N)c(OC(F)F)c3)nn2C(C)C)C1 [compound 194, 3-(difluoromethoxy)-5-(1-isopropyl-5-((1R,3s,5S,6R)-3-((R)-3-methoxypyrrolidin-1-yl)bicyclo [3.1.0]hcxan-6-yl)-1 H-pyrazol-3-yl)pyridin-2-amine]
1.8 | CC(C)n1nc(-c2cnc(N)c(OC(F)F)c2)cc1[C@H]1[C@@H]2C[C@H](N3CCN(CC(F)F)CC3)C[C@@H]21 [compound 264, 5-(5-((1R,3r,5S,6r)-3-(4-(2,2-difluoroethyl)piperazin-1-yl)bicyclo [3.1.0]hexan-6-yl)-1-isopropyl-1H-pyrazol-3-yl)-3-(difluoromethoxy)pyridin-2-amine]
1.77 | 5-(1-isopropyl-5-((1R,3r,5S,6R)- 3-((R)-2-methylmorpholino) bicyclo[3.1.0]hexan-6-yl)-1H- pyrazol-3-yl)-3-(trifluoromethoxy) pyridin-2-amine [compound 12]
2.6 | CC(C)n1nc(-c2cnc(N)c(OC(F)F)c2)cc1[C@H]1[C@@H]2C[C@@]3(CCN3CC(F)F)C[C@@H]21 [compound 162, 5-(5-((1′R,2r,5′S,6′r)-1-(2,2-difluoro-ethyl)spiro[azetidine-2,3′-bicyclo[3.1.0]hexan]-6′-yl)-1-isopropyl-1H-pyrazol-3-yl)-3-(difluoro-methoxy)pyridin-2-amine]
2.28 | 5-(1-isopropyl-5-((1R,3s,5S,6R)- 3-((R)-2-methylmorpholino) bicyclo[3.1.0]hexan-6-yl)-1H- pyrazol-3-yl)-3-(trifluoromethyl) pyridin-2-amine [compound 1]
1.68 | CC(C)n1nc(-c2cnc(N)c(OC(F)F)c2)cc1[C@H]1[C@@H]2C[C@@H](N3CCOCC3)C[C@@H]21 [compound 84, 3-(difluoromethoxy)-5-(1-isopropyl-5-((1R,3s,5S,6r)-3-morpholino-bicyclo[3.1.0]hexan-6-yl)-1H-pyrazol-3-yl)pyridin-2-amine]
2.1 | CC(C)n1nc(-c2cnc(N)c(OC(F)F)c2)cc1[C@H]1[C@@H]2C[C@H](N3CCN(C)CC3)C[C@@H]21 [compound 198, 3-(difluoromethoxy)-5-(1-isopropyl-5-((1R,3r,5S,6r)-3-(4-methyl-piperazin-1-yl)bicyclo[3.1.0]hexan-6-yl)-1H-pyrazol-3-yl) pyridin-2-amine]
1.6 | CO[C@@H]1CCN([C@H]2C[C@@H]3[C@H](C2)[C@H]3c2cc(-c3cnc(N)c(OC(F)F)c3)nn2C(C)C)C1 [compound 186, 3-(difluoromethoxy)-5-(1-isopropyl-5-((1R,3r,5S,6R)-3-((R)-3-methoxypyrrolidin-1-yl)bicyclo [3.1.0]hexan-6-yl)-1H-pyrazol-3-yl)pyridin-2-amine]
2.9 | CC(C)n1nc(-c2cnc(N)c(C(F)(F)F)c2)cc1[C@H]1[C@@H]2C[C@H](N3CC(C#N)C3)C[C@@H]21 [compound 70, 1-((1R,3r,5S,6r)-6-(3-(6-amino-5-(trifIuoromethyl)pyridin-3-yl)-1-isopropyl-1H-pyrazol-5-yl)bicyclo[3.1.0]hexan-3-yl)azetidine-3-carbonitrile]
2.4 | Nc1ncc(-c2cc([C@H]3[C@@H]4C[C@H](N5CCOCC5)C[C@@H]43)n(CC3CC3)n2)cc1OC(F)(F)F [compound 295, 5-(1-(cyclopropylmethyl)-5-((1R,3r,5S,6r)-3-morpholinobicyclo [3.1.0]hexan-6-yl)-1H-pyrazol-3-yl)-3-(trifluoromethoxy) pyridin-2-amine]
1.6 | Nc1ncc(-c2cc([C@H]3[C@@H]4C[C@@H](N5CCOCC5)C[C@@H]43)n(CC(F)F)n2)cc1OC(F)(F)F [compound 165, 5-(1-(2,2-difluoroethyl)-5-((1R,3s,5S,6r)-3-morpholinobicyclo [3.1.0]hexan-6-yl)-1H-pyrazol-3-yl)-3-(trifluoromethoxy) pyridin-2-amine]
2 | CC(C)n1nc(-c2cnc(N)c(C(F)(F)F)c2)cc1[C@H]1[C@@H]2C[C@H](N3C[C@@H]4C[C@H]3CN4C)C[C@@H]21 [compound 200, 5-(1-isopropyl-5-((1R,3r,5S,6S)-3-((1S,4S)-5-methyl-2,5-diazabicyclo [2.2.1]heptan-2-yl)bicyclo [3.1.0]hexan-6-yl)-1H-pyrazol-3-yl)-3-(trifluoromethyl)pyridin-2-amine]
1.13 | CC(C)n1nc(-c2cnc(N)c(C(F)(F)F)c2)cc1[C@H]1[C@@H]2C[C@H](N3CC4(COC4)C3)C[C@@H]21 [compound 65, 5-(5-((1R,3r,5S,6r)-3-(2-oxa-6-azaspiro[3.3]heptan-6-yl)bicyclo [3.1.0]hexan-6-yl)-1-isopropyl-1H-pyrazol-3-yl)-3-(trifluoro-methyl)pyridin-2-amine]
